System: soybean plants containing event EE-GM4
Test: HPPD inhibitor herbicide tolerance field trials on soybean plants containing EE-GM4
Format: in vivo, Glycine max
Conditions: for tolerance / crop damage of plants with EE-GM4, herbicide applied post-emergence / tolerance of plants with EE-GM4 to herbicide applied pre-emergence: field, 2 years; for tolerance / crop damage of plants with EE-GM4, herbicide applied post-emergence: post-emergence at V2-V3 stage with crop oil concentrate and ammonium sulfate, 2x dose (210 gr/ha); for tolerance of plants with EE-GM4 to herbicide applied pre-emergence: 4x dose (420 gr/ha IFT, 840 gr/ha mesotrione); for average maximum phytotoxicity: plants with EE-GM4
From the text: Numbers in ( ) below a treatment give the number of trials included in the bar, the number on top of each bar gives the average maximum phytotoxicity value for that treatment. Treatments applied were: IFT=isoxaflutole, MST=mesotrione, PE=pre-emergence, PO=post-emergence (at V2-V3 stage, with adjuvants crop oil concentrate and ammonium sulfate added to increase herbicide activity). Rates shown are in gram active ingredient/hectare (4× dose in pre-emergence, 2× dose in post-emergence).
Tolerance of plants comprising EE-GM4 to HPPD inhibitor herbicides was tested at different locations in the field over 2 years. […] All post-emergence treatments were at the V2-V3 stage, with adjuvants crop oil concentrate and ammonium sulfate added to increase herbicide activity.
The “maximum phytotoxicity” as used herein is the highest phytotoxicity rating recorded at any observation during the duration of a trial (with 3 to 4 observations per trial). In existing weed control applications, a normal (1×) dose for isoxaflutole (IFT) in pre- or post-emergence application and for MST in post-emergence application is 105 gr/ha, and a normal (1×) dose for mesotrione in pre-emergence application is 210 gr/ha.
Also, in several field trials across 2 years, soybean plants with event EE-GM4 had good tolerance towards experimental HPPD inhibitor compound 2-methyl-N-(5-methyl-1,3,4-oxadiazol-2-yl)-3-(methylsulfonyl)-4-(trifluoromethyl)benzamide (U.S. Pat. No. 9,101,141) when applied pre-emergence at 400 gr ai/ha or post-emergence at 200 gr ai/ha, respectively (the average maximum phytotoxicity value for each treatment was below 20%). […] All post-emergence treatments were at the V2-V3 stage, with adjuvants crop oil concentrate and ammonium sulfate added to increase herbicide activity.

CS(=O)(=O)c1cc(C(F)(F)F)ccc1C(=O)c1cnoc1C1CC1 [isoxaflutole, (5-cyclopropyl-4-isoxazolyl)[2-(methylsulfonyl)-4-(trifluoromethyl)phenyl]methanone]
tolerance / crop damage of plants with EE-GM4, herbicide applied post-emergence: crop damage was a bit higher | tolerance of plants with EE-GM4 to herbicide applied pre-emergence: commercially relevant tolerance

CSc1c(C(F)(F)F)ccc(C(=O)Nc2nnnn2C)c1Cl [2-chloro-3-(methylsulfanyl)-N-(1-methyl-1H-tetrazol-5-yl)-4-(trifluoromethyl)benzamide]
average maximum phytotoxicity (post-emergence at 100-150 gr ai/ha, V2-V3 stage with adjuvants): 30%

CS(=O)(=O)c1ccc(C(=O)C2C(=O)CCCC2=O)c([N+](=O)[O-])c1 [mesotrione, 2-[4-(Methylsulfonyl)-2-nitrobenzoyl]cyclohexane-1,3-dione]
tolerance / crop damage of plants with EE-GM4, herbicide applied post-emergence: commercially relevant tolerance | tolerance of plants with EE-GM4 to herbicide applied pre-emergence: commercially relevant tolerance

Cc1nnc(NC(=O)c2ccc(C(F)(F)F)c(S(C)(=O)=O)c2C)o1 [2-methyl-N-(5-methyl-1,3,4-oxadiazol-2-yl)-3-(methylsulfonyl)-4-(trifluoromethyl)benzamide]
average maximum phytotoxicity (post-emergence at 200 gr ai/ha, V2-V3 stage with adjuvants): below 20% | average maximum phytotoxicity (pre-emergence at 400 gr ai/ha, field trials across 2 years): below 20%

Source: patent US20210198685A1, “PLANTS CONTAINING ELITE EVENT EE-GM4 AND METHODS AND KITS FOR IDENTIFYING SUCH EVENT IN BIOLOGICAL SAMPLES, AND TREATMENT THEREOF” (priority 2018, published 2021)
